Experimental data taken from paper PMC7265341, “Quantifying CDK inhibitor selectivity in live cells” (Nature Communications, 2020).
Read-outs that look alike come from different tables or passages of the source.

Tests used:
CDK1/Cyclin E1 = CDK1/Cyclin E1 (Homo sapiens, UniProt P06493); assay: NanoBRET live-cell target engagement, CDK1-NanoLuc/Cyclin E1 in HEK-293; type: binding; conditions: CDK1/E1
CDK2/Cyclin E1 = CDK2/Cyclin E1 (Homo sapiens, UniProt P24941); assay: NanoBRET live-cell target engagement, CDK2-NanoLuc/Cyclin E1 in HEK-293; type: binding; conditions: CDK2/E1; for IC50: read-out: IC50
CDK3/Cyclin E1 = CDK3/Cyclin E1 (Homo sapiens, UniProt Q00526); assay: NanoBRET live-cell target engagement, CDK3-NanoLuc/Cyclin E1 in HEK-293; type: binding; conditions: CDK3/E1
CDK4/Cyclin D1 = CDK4/Cyclin D1 (Homo sapiens, UniProt P11802); assay: NanoBRET live-cell target engagement, NanoLuc-CDK4/Cyclin D1 in HEK-293; type: binding; conditions: CDK4/D1; for IC50: read-out: IC50
CDK5/CDK5R1 = CDK5/CDK5R1 (Homo sapiens, UniProt Q00535); assay: NanoBRET live-cell target engagement, CDK5-NanoLuc/CDK5R1 in HEK-293; type: binding; conditions: CDK5/CDK5R1
CDK6/Cyclin D1 = CDK6/Cyclin D1 (Homo sapiens, UniProt Q00534); assay: NanoBRET live-cell target engagement, NanoLuc-CDK6/Cyclin D1 in HEK-293; type: binding; conditions: CDK6/D1; for IC50: read-out: IC50
CDK7 = CDK7 (Homo sapiens, UniProt P50613); assay: NanoBRET live-cell target engagement, NanoLuc-CDK7 in HEK-293; type: binding; conditions: CDK7; for IC50: read-out: IC50
CDK8/Cyclin C = CDK8/Cyclin C (Homo sapiens, UniProt P49336); assay: NanoBRET live-cell target engagement, NanoLuc-CDK8/Cyclin C in HEK-293; type: binding; conditions: CDK8/C
CDK9/Cyclin K = CDK9/Cyclin K (Homo sapiens, UniProt P50750); assay: NanoBRET live-cell target engagement, NanoLuc-CDK9/Cyclin K in HEK-293; type: binding; conditions: CDK9/K
Chain of CDK9/Cyclin K (P50750 whole entry): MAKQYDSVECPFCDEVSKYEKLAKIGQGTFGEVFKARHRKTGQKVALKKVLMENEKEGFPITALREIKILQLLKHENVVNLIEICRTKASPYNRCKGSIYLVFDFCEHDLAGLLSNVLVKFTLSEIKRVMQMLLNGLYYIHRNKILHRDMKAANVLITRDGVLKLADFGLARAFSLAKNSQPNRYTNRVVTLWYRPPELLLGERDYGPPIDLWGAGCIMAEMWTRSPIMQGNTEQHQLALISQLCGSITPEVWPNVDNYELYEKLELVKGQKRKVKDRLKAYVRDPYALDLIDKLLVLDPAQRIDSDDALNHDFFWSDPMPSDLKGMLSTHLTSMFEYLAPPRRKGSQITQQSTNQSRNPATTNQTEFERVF
Chain of CDK9/Cyclin K (O75909 whole entry partner): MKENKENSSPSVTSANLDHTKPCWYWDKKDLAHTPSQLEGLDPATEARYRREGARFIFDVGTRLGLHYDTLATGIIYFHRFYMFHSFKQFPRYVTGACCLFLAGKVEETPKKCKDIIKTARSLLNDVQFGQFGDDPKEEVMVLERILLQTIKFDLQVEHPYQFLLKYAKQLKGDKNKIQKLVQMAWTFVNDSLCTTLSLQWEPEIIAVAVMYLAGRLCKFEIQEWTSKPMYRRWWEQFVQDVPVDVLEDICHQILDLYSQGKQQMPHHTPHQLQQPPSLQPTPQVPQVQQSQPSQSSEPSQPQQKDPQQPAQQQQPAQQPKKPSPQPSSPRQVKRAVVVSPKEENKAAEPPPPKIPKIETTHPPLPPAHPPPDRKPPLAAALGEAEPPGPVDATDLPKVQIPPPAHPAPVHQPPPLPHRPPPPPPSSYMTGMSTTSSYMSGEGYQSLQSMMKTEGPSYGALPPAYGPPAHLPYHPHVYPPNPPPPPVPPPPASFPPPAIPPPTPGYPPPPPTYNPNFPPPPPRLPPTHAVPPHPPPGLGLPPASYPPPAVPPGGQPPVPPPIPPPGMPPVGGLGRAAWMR

CDK11B/Cyclin L2 = CDK11B/Cyclin L2 (Homo sapiens, UniProt P21127); assay: NanoBRET live-cell target engagement, CDK11B-NanoLuc/Cyclin L2 in HEK-293; type: binding; conditions: CDK11b/L2; for IC50: read-out: IC50
Chain of CDK11B/Cyclin L2 (P21127 1-782 isoform P21127-2): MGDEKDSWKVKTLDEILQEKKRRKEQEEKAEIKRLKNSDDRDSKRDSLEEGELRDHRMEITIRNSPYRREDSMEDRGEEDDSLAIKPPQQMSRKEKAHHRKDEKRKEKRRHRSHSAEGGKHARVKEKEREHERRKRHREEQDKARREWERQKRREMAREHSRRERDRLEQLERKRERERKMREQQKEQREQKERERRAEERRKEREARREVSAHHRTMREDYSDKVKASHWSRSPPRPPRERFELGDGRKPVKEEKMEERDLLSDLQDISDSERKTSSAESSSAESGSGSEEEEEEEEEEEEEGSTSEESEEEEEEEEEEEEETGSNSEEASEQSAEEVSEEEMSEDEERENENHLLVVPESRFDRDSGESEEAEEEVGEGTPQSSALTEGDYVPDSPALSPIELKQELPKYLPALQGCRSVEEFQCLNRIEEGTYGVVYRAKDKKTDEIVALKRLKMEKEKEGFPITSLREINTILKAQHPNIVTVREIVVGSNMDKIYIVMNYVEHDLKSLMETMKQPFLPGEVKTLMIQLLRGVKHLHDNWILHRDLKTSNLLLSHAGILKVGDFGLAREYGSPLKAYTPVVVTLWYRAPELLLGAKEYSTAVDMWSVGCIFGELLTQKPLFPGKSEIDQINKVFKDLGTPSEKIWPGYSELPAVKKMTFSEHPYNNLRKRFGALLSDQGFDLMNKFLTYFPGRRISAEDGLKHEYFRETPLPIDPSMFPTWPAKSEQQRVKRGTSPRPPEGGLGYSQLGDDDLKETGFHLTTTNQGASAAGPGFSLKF

CDK12/Cyclin K = CDK12/Cyclin K (Homo sapiens, UniProt Q9NYV4); assay: NanoBRET live-cell target engagement, CDK12-NanoLuc/Cyclin K in HEK-293; type: binding; conditions: CDK12/K
CDK13/Cyclin K = CDK13/Cyclin K (Homo sapiens, UniProt Q14004); assay: NanoBRET live-cell target engagement, CDK13-NanoLuc/Cyclin K in HEK-293; type: binding; conditions: CDK13/K
CDK14/Cyclin Y = CDK14/Cyclin Y (Homo sapiens, UniProt O94921); assay: NanoBRET live-cell target engagement, CDK14-NanoLuc/Cyclin Y in HEK-293; type: binding; conditions: CDK14/Y; for IC50: read-out: IC50
Chain of CDK14/Cyclin Y (O94921 whole entry): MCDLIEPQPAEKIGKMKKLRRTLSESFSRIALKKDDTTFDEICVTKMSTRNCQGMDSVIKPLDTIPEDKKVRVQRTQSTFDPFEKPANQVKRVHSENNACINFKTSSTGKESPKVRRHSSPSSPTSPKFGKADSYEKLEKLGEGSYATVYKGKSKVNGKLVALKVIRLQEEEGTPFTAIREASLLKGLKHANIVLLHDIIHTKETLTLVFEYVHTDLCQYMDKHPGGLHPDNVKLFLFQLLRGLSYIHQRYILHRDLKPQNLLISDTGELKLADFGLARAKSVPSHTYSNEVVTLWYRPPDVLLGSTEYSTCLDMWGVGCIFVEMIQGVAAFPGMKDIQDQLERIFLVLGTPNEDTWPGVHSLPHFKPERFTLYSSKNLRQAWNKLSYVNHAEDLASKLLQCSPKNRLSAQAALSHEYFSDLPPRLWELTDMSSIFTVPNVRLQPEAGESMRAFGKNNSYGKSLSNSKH
Chain of CDK14/Cyclin Y (Q8ND76 whole entry partner): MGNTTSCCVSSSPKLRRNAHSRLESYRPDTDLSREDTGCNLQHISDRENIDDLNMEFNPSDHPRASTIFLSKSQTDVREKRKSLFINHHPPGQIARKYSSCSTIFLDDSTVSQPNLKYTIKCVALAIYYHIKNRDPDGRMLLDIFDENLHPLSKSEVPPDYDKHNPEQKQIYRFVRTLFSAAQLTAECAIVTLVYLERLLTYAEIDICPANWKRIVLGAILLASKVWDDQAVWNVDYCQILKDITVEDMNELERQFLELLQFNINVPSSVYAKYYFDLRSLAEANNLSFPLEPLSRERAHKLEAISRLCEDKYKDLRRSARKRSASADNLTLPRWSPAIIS

CDK15/Cyclin Y = CDK15/Cyclin Y (Homo sapiens, UniProt Q96Q40); assay: NanoBRET live-cell target engagement, NanoLuc-CDK15/Cyclin Y in HEK-293; type: binding
Chain of CDK15/Cyclin Y (Q96Q40 whole entry): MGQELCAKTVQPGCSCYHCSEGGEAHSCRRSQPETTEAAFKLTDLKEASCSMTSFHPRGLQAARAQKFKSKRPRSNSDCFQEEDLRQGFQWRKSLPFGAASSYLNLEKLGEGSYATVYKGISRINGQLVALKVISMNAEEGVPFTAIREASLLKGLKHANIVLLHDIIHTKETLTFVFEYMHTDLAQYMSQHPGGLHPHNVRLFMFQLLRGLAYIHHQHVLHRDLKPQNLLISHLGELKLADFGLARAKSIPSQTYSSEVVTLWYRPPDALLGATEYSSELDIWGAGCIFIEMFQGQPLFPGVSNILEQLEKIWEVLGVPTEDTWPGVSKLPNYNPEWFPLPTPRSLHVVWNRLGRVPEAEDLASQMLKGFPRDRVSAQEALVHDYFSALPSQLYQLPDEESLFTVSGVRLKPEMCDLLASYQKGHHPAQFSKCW
Chain of CDK15/Cyclin Y (Q8ND76 whole entry partner): as the sequence (Q8ND76 whole entry partner) above

CDK16/Cyclin Y = CDK16/Cyclin Y (Homo sapiens, UniProt Q00536); assay: NanoBRET live-cell target engagement, CDK16-NanoLuc/Cyclin Y in HEK-293; type: binding; conditions: CDK16/Y; for IC50: read-out: IC50
CDK17/Cyclin Y = CDK17/Cyclin Y (Homo sapiens, UniProt Q00537); assay: NanoBRET live-cell target engagement, CDK17-NanoLuc/Cyclin Y in HEK-293; type: binding; conditions: CDK17/Y; for IC50: read-out: IC50
CDK18/Cyclin Y = CDK18/Cyclin Y (Homo sapiens, UniProt Q07002); assay: NanoBRET live-cell target engagement, CDK18-NanoLuc/Cyclin Y in HEK-293; type: binding; conditions: CDK18/Y; for IC50: read-out: IC50
CDK20/Cyclin H = CDK20/Cyclin H (Homo sapiens, UniProt Q8IZL9); assay: NanoBRET live-cell target engagement, NanoLuc-CDK20/Cyclin H in HEK-293; type: binding; conditions: CDK20/H
CDK19/Cyclin C = CDK19/Cyclin C (Homo sapiens, UniProt Q9BWU1); assay: NanoBRET live-cell target engagement, NanoLuc-CDK19/Cyclin C in HEK-293; conditions: CDK19/C
Chain of CDK19/Cyclin C (Q9BWU1 whole entry): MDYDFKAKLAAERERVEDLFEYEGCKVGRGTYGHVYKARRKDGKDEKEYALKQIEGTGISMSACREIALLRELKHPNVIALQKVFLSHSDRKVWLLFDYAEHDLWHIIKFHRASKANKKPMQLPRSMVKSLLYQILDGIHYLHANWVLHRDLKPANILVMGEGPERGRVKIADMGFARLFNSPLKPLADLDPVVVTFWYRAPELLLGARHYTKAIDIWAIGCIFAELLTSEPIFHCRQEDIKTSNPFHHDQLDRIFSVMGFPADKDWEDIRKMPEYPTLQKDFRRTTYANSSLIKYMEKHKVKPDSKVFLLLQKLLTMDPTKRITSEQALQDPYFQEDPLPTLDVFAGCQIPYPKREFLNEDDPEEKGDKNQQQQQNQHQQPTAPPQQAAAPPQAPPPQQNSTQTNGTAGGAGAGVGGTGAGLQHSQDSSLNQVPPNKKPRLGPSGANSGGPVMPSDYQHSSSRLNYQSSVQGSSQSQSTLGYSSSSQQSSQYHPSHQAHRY
Chain of CDK19/Cyclin C (P24863 whole entry partner): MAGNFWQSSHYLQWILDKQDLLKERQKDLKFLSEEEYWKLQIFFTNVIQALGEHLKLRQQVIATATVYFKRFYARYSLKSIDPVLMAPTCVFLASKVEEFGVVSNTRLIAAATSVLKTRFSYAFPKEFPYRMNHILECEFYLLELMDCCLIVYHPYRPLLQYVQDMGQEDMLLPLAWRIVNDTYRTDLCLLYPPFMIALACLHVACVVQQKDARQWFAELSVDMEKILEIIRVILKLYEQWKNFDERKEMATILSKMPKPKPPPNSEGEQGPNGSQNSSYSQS

CDK10/Cyclin L2 = CDK10/Cyclin L2 (Homo sapiens, UniProt Q15131); assay: NanoBRET live-cell target engagement, CDK10-NanoLuc/Cyclin L2 in HEK-293; conditions: CDK10/L2
Chain of CDK10/Cyclin L2 (Q15131 whole entry): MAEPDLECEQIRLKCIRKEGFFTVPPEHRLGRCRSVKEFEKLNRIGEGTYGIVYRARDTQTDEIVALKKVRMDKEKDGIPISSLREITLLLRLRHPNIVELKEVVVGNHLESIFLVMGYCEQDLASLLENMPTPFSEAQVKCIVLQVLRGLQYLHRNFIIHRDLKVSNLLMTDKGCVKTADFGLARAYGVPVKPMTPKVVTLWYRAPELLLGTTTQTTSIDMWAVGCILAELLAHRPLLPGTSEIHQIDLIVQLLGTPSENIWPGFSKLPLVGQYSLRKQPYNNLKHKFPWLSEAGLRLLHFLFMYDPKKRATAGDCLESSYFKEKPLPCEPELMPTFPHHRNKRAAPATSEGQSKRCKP

Chain of CDK1/Cyclin E1 (P06493 whole entry): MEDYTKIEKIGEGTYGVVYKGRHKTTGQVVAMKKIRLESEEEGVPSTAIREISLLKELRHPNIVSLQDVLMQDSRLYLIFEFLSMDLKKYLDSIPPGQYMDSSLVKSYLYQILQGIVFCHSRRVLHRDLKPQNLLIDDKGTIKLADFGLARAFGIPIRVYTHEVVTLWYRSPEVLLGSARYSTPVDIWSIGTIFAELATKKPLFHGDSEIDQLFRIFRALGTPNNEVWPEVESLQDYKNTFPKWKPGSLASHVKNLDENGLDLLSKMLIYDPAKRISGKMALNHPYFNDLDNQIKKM
Chain of CDK1/Cyclin E1 (P24864 whole entry partner): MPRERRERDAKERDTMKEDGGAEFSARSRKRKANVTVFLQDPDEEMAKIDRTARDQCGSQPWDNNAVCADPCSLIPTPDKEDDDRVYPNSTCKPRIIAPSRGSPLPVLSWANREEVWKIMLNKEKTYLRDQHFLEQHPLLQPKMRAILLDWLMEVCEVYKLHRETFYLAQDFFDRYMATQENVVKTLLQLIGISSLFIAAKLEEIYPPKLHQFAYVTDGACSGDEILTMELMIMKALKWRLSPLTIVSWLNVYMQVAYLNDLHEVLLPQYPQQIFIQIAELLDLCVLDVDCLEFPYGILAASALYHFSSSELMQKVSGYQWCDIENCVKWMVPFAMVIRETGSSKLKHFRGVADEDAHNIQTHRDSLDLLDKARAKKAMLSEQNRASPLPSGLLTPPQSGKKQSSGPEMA

## CC(C)c1c2cc(-c3ccnc(N[C@H]4CC[C@H](NC5CCOCC5)CC4)n3)ccc2nn1C [LY2857785]
CDK1/Cyclin E1; average
  Inhibition at 10µM (%): 76.5%
CDK1/Cyclin E1; experiment 1
  Inhibition at 10µM (%): 76.1%
CDK1/Cyclin E1; experiment 2
  Inhibition at 10µM (%): 76.9%
CDK2/Cyclin E1; average
  Inhibition at 10µM (%): 85.9%
CDK2/Cyclin E1; average (± SEM where n=3)
  IC50: 660 nM
CDK2/Cyclin E1; experiment 1
  Inhibition at 10µM (%): 85.1%
  IC50: 730 nM
CDK2/Cyclin E1; experiment 2
  Inhibition at 10µM (%): 86.7%
  IC50: 590 nM
CDK3/Cyclin E1; average
  Inhibition at 10µM (%): 89.1%
CDK3/Cyclin E1; experiment 1
  Inhibition at 10µM (%): 89.3%
CDK3/Cyclin E1; experiment 2
  Inhibition at 10µM (%): 88.9%
CDK4/Cyclin D1; average
  Inhibition at 10µM (%): 97.1%
CDK4/Cyclin D1; average (± SEM where n=3)
  IC50: 40 nM
CDK4/Cyclin D1; experiment 1
  Inhibition at 10µM (%): 97.8%
  IC50: 44 nM
CDK4/Cyclin D1; experiment 2
  Inhibition at 10µM (%): 96.5%
  IC50: 36 nM
CDK5/CDK5R1; average
  Inhibition at 10µM (%): 68.7%
CDK5/CDK5R1; experiment 1
  Inhibition at 10µM (%): 68.7%
CDK5/CDK5R1; experiment 2
  Inhibition at 10µM (%): 68.7%
CDK6/Cyclin D1; average
  Inhibition at 10µM (%): 96.5%
CDK6/Cyclin D1; average (± SEM where n=3)
  IC50: 110 nM
CDK6/Cyclin D1; experiment 1
  Inhibition at 10µM (%): 96.6%
  IC50: 124 nM
CDK6/Cyclin D1; experiment 2
  Inhibition at 10µM (%): 96.3%
  IC50: 98 nM
CDK7; average
  Inhibition at 10µM (%): 92.6%
CDK7; average (± SEM where n=3)
  IC50: 31 nM
CDK7; experiment 1
  Inhibition at 10µM (%): 91.7%
  IC50: 28 nM
CDK7; experiment 2
  Inhibition at 10µM (%): 93.4%
  IC50: 34 nM
CDK8/Cyclin C; average
  Inhibition at 10µM (%): 83.7%
CDK8/Cyclin C; experiment 1
  Inhibition at 10µM (%): 88.4%
CDK8/Cyclin C; experiment 2
  Inhibition at 10µM (%): 79.0%
CDK9/Cyclin K; average
  Inhibition at 10µM (%): 97.9%
CDK9/Cyclin K; experiment 1
  Inhibition at 10µM (%): 98.0%
CDK9/Cyclin K; experiment 2
  Inhibition at 10µM (%): 97.9%
CDK11B/Cyclin L2; average
  Inhibition at 10µM (%): 94.8%
CDK11B/Cyclin L2; average (± SEM where n=3)
  IC50: 24 nM
CDK11B/Cyclin L2; experiment 1
  Inhibition at 10µM (%): 95.7%
  IC50: 21 nM
CDK11B/Cyclin L2; experiment 2
  Inhibition at 10µM (%): 93.9%
  IC50: 27 nM
CDK12/Cyclin K; average
  Inhibition at 10µM (%): 43.6%
CDK12/Cyclin K; experiment 1
  Inhibition at 10µM (%): 48.1%
CDK12/Cyclin K; experiment 2
  Inhibition at 10µM (%): 39.1%
CDK13/Cyclin K; average
  Inhibition at 10µM (%): 26.3%
CDK13/Cyclin K; experiment 1
  Inhibition at 10µM (%): 28.2%
CDK13/Cyclin K; experiment 2
  Inhibition at 10µM (%): 24.3%
CDK14/Cyclin Y; average
  Inhibition at 10µM (%): 90.6%
CDK14/Cyclin Y; average (± SEM where n=3)
  IC50: 510 nM
CDK14/Cyclin Y; experiment 1
  Inhibition at 10µM (%): 90.3%
  IC50: 392 nM
CDK14/Cyclin Y; experiment 2
  Inhibition at 10µM (%): 90.9%
  IC50: 630 nM
CDK15/Cyclin Y; CDK15/Y, average
  Inhibition at 10µM (%): 93.6%
CDK15/Cyclin Y; CDK15/Y, average (± SEM where n=3), read-out: IC50
  IC50: 320 nM
CDK15/Cyclin Y; CDK15/Y, experiment 1
  Inhibition at 10µM (%): 93.4%
CDK15/Cyclin Y; CDK15/Y, experiment 1, read-out: IC50
  IC50: 323 nM
CDK15/Cyclin Y; CDK15/Y, experiment 2
  Inhibition at 10µM (%): 93.9%
CDK15/Cyclin Y; CDK15/Y, experiment 2, read-out: IC50
  IC50: 320 nM
CDK15/Cyclin Y; live HEK-293, 2 h, mean ± S.E.M. (n=3) or mean (n=2), read-out: IC50 for CDK/cyclin complexes, CDK15/Y
  IC50: 320 nM
CDK16/Cyclin Y; average (± SEM where n=3)
  IC50: 160 nM
CDK16/Cyclin Y; experiment 1
  Inhibition at 10µM (%): 82.9%
  IC50: 220 nM
CDK16/Cyclin Y; experiment 2
  Inhibition at 10µM (%): 91.1%
  IC50: 91 nM
CDK17/Cyclin Y; average
  Inhibition at 10µM (%): 90.5%
CDK17/Cyclin Y; average (± SEM where n=3)
  IC50: 41 nM
CDK17/Cyclin Y; experiment 1
  Inhibition at 10µM (%): 89.7%
  IC50: 15 nM
CDK17/Cyclin Y; experiment 2
  Inhibition at 10µM (%): 91.4%
  IC50: 67 nM
CDK18/Cyclin Y; average
  Inhibition at 10µM (%): 96.0%
CDK18/Cyclin Y; average (± SEM where n=3)
  IC50: 290 nM
CDK18/Cyclin Y; experiment 1
  Inhibition at 10µM (%): 91.6%
  IC50: 204 nM
CDK18/Cyclin Y; experiment 2
  Inhibition at 10µM (%): 100.3%
  IC50: 370 nM
CDK20/Cyclin H; experiment 1
  Inhibition at 10µM (%): 39.4%
CDK20/Cyclin H; experiment 2
  Inhibition at 10µM (%): 39.8%
CDK19/Cyclin C; average
  Inhibition at 10µM (%): 82.9%
CDK19/Cyclin C; experiment 1
  Inhibition at 10µM (%): 90.1%
CDK19/Cyclin C; experiment 2
  Inhibition at 10µM (%): 75.7%
CDK10/Cyclin L2; average
  Inhibition at 10µM (%): 80.7%
CDK10/Cyclin L2; average (± SEM where n=3)
  IC50: 600 nM
CDK10/Cyclin L2; experiment 1
  IC50: 490 nM
  Inhibition at 10µM (%): 81.9%
CDK10/Cyclin L2; experiment 2
  IC50: 710 nM
  Inhibition at 10µM (%): 79.4%
